Experimental data taken from the NIST ThermoML archive (doi:10.1016/j.fluid.2017.04.014).

Conditions: Liquid, Closed cell (Static) method

CC(C)CC(C)(C)C [2,2,4-trimethylpentane]
Conditions | vapor or sublimation pressure [kPa]
283.6 K | 3.05
288.4 K | 3.99
293.4 K | 5.18
298.3 K | 6.63
298.4 K | 6.62
303.3 K | 8.39
308.2 K | 10.53
313.1 K | 12.97
318.1 K | 15.96
323 K | 19.54
328 K | 23.81
332.8 K | 28.66

COC(C)(C)C [2-methoxy-2-methylpropane]
Conditions | vapor or sublimation pressure [kPa]
283.6 K | 17.79
288.6 K | 22.07
293.5 K | 27.43
298.4 K | 33.72
303.3 K | 41.1
308.2 K | 49.8
313.1 K | 59.9
318.1 K | 71.61
323 K | 85.01
327.9 K | 100.34
332.9 K | 117.7
337.8 K | 137.39

CCO [ethanol]
Conditions | vapor or sublimation pressure [kPa]
278.6 K | 2.18
283.5 K | 3.11
293.4 K | 5.95
298.3 K | 7.96
303.2 K | 10.52
308.1 K | 13.84
313.1 K | 17.87
318.1 K | 22.98
322.9 K | 29.05
327.9 K | 36.73
332.8 K | 46.15

Cc1ccccc1 [toluene]
Conditions | vapor or sublimation pressure [kPa]
278.7 K | 1.26
283.6 K | 1.7
288.5 K | 2.26
293.4 K | 2.97
298.3 K | 3.89
303.2 K | 5
308.1 K | 6.27
313.1 K | 7.99
318 K | 9.95
323 K | 12.26
327.9 K | 15
332.8 K | 18.26
337.8 K | 22.04
